Like-named read-outs stand apart in the source and are kept apart here.
How the values were obtained:
human NK1 receptor = human NK1 receptor (Homo sapiens, UniProt P25103); assay: NK1 receptor binding, [3H]substance P displacement, CHO cell membranes
[1] = molecular target: T1, Recombinant human NK3 (hNK3) receptor (Homo sapiens, UniProt P29371); assay: NK3 receptor binding, [3H]SR142801 displacement, membrane preparations
T1 construct: expressed in transfected cells
T1 sequence (P29371 1-465): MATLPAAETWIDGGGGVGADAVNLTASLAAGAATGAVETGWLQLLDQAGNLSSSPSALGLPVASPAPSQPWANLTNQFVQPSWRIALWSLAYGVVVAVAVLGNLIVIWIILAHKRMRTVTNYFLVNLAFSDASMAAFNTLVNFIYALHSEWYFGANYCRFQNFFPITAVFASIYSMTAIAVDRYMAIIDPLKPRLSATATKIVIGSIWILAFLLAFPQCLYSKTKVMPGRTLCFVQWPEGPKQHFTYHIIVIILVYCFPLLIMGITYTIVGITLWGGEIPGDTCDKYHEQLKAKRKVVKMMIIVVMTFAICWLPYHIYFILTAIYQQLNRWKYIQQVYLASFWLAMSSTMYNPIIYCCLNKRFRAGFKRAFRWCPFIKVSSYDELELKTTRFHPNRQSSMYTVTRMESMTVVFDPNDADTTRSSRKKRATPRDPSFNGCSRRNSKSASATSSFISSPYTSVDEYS
Procedure, shortened: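 Room-temperature, 90-min filtration binding assay using about 2.5 μg recombinant receptor membranes per well; separation on polyethyleneimine-treated glass-fibre (GF/C) filters and liquid scintillation read-out, with 10 μM SB222200 for nonspecific binding.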

[2] = first value of the cell pKi NK1/NK3, human NK1 receptor, [3H]substance P
[3] = second value of the cell pKi NK1/NK3, hNK3 receptor, [3H]SR142801
[4] = first value of the cell NK1/NK3, read-out: pKi NK1 (converted)
[5] = second value of the cell NK1/NK3, read-out: pKi NK3 (converted)

Sequence of human NK1 receptor (P25103 whole entry): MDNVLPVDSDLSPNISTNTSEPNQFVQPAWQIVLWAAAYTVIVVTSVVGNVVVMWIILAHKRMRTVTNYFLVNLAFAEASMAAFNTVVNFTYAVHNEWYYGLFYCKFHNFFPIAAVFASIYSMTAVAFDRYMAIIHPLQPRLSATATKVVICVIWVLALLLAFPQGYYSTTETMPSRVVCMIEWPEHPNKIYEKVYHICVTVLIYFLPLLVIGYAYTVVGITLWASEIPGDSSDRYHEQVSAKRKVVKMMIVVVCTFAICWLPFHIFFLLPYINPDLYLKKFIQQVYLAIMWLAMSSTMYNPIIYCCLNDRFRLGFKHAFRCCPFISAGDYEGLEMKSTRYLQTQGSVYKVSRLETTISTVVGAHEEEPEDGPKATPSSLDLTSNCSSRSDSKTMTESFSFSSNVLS

Structure (SMILES)	Ki (human NK1 receptor; [2]) [nM]	Ki [1, 3] [nM]	Ki (human NK1 receptor; [4]) [nM]	Ki [1, 5] [nM]
CN(C(=O)C(C)(C)c1cc(C(F)(F)F)cc(C(F)(F)F)c1)c1cnc(N2CCCCC2CCO)cc1-c1ccccc1Cl (racemic) [Example 53, (RS)-2-(3,5-Bis-trifluoromethyl-phenyl)-N-[4′-(2-chloro-phenyl)-2-(2-hydroxy-ethyl)-3,4,5,6-tetrahydro-2H-[1,2′]bipyridinyl-5′-yl]-N-methyl-isobutyramide]	2.51	24.5	–	–
CC(=O)NC1CCN(c2cc(-c3ccc(F)cc3C)c(N(C)C(=O)C(C)(C)c3cc(C(F)(F)F)cc(C(F)(F)F)c3)cn2)CC1 [Example 114, N-[4-Acetylamino-4′-(4-fluoro-2-methyl-phenyl)-3,4,5,6-tetrahydro-2H-[1,2′]bipyridinyl-5′-yl]-2-(3,5-bis-trifluoromethyl-phenyl)-N-methyl-isobutyramide]	0.603	16.2	–	–
CN(C(=O)C(C)(C)c1cc(C(F)(F)F)cc(C(F)(F)F)c1)c1cnc(N2CCC[C@H]2CO)cc1-c1ccc(Cl)cc1Cl [Example 283, (S)-2-(3,5-Bis-trifluoromethyl-phenyl)-N-[4-(2,4-dichloro-phenyl)-6-(2-hydroxymethyl-pyrrolidin-1-yl)-pyridin-3-yl]-N-methyl-isobutyramide]	–	–	2.82	1.48
CC(=O)NCCNc1cc(-c2ccccc2Cl)c(N(C)C(=O)C(C)(C)c2cc(C(F)(F)F)cc(C(F)(F)F)c2)cn1 [Example 90, N-[6-(2-Acetylamino-ethylamino)-4-(2-chloro-phenyl)-pyridin-3-yl]-2-(3,5-bis-trifluoromethyl-phenyl)-N-methyl-isobutyramide]	1.78	6.03	–	–
Cc1cc(F)ccc1-c1cc(N2CCC[C@H]2CO)ncc1N(C)C(=O)C(C)(C)c1cc(C(F)(F)F)cc(C(F)(F)F)c1 [Example 165, (S)-2-(3,5-Bis-trifluoromethyl-phenyl)-N-[4-(4-fluoro-2-methyl-phenyl)-6-(2-hydroxymethyl-pyrrolidin-1-yl)-pyridin-3-yl]-N-methyl-isobutyramide]	2.09	1.1	–	–
CN(C(=O)C(C)(C)c1cc(C(F)(F)F)cc(C(F)(F)F)c1)c1cnc(N2CCC[C@H]2CN2CCCC2)cc1-c1ccccc1Cl [Example 64, (S)-2-(3,5-Bis-trifluoromethyl-phenyl)-N-[4-(2-chloro-phenyl)-6-(−2-pyrrolidin-1-ylmethyl-pyrrolidin-1-yl)-pyridin-3-yl]-N-methyl-isobutyramide]	1	2.88	–	–
CN(C(=O)C(C)(C)c1cc(C(F)(F)F)cc(C(F)(F)F)c1)c1cnc(N2C[C@@H](O)[C@@H](O)C2)cc1-c1ccccc1Cl [Example 48, (3R,4S)-2-(3,5-Bis-trifluoromethyl-phenyl)-N-[4-(2-chloro-phenyl)-6-(3,4-dihydroxy-pyrrolidin-1-yl)-pyridin-3-yl]-N-methyl-isobutyramide]	0.537	8.71	–	–
Cc1ccccc1-c1cc(N2CCOC[C@H]2CO)ncc1N(C)C(=O)C(C)(C)c1cc(C(F)(F)F)cc(C(F)(F)F)c1 [Example 175]	1.62	2.14	–	–
CN(C(=O)C(C)(C)c1cc(C(F)(F)F)cc(C(F)(F)F)c1)c1cnc(N2CC[C@H](O)[C@H]2CO)cc1-c1ccccc1 [Example 265, (2R,3S)-2-(3,5-Bis-trifluoromethyl-phenyl)-N-[6-(3-hydroxy-2-hydroxymethyl-pyrrolidin-1-yl)-4-phenyl-pyridin-3-yl]-N-methyl-isobutyramide]	–	–	1.45	4.9
COc1ccccc1-c1cc(N2CC[C@H](O)[C@H]2CO)ncc1N(C)C(=O)C(C)(C)c1cc(C(F)(F)F)cc(C(F)(F)F)c1 [Example 263, (2R,3S)-2-(3,5-Bis-trifluoromethyl-phenyl)-N-[6-(3-hydroxy-2-hydroxymethyl-pyrrolidin-1-yl)-4-(2-methoxy-phenyl)-pyridin-3-yl]-N-methyl-isobutyramide]	–	–	1.02	1.35
CC(=O)N[C@H]1CCN(c2cc(-c3ccccc3Br)c(N(C)C(=O)C(C)(C)c3cc(C(F)(F)F)cc(C(F)(F)F)c3)cn2)C1 [Example 133, (S)-N-[6-(3-Acetylamino-pyrrolidin-1-yl)-4-(2-bromo-phenyl)-pyridin-3-yl]-2-(3,5-bis-trifluoromethyl-phenyl)-N-methyl-isobutyramide]	0.794	2	–	–
C[C@@H](O)[C@H](CO)Nc1cc(-c2ccccc2Cl)c(N(C)C(=O)C(C)(C)c2cc(C(F)(F)F)cc(C(F)(F)F)c2)cn1 [Example 146, (1S,2R)-2-(3,5-Bis-trifluoromethyl-phenyl)-N-[4-(2-chloro-phenyl)-6-(2-hydroxy-1-hydroxymethyl-propylamino)-pyridin-3-yl]-N-methyl-isobutyramide]	0.891	11.7	–	–
CN(C(=O)C(C)(C)c1cc(C(F)(F)F)cc(C(F)(F)F)c1)c1cnc(N2C[C@@H](O)C[C@H]2CO)cc1-c1ncccc1Cl [Example 256, (2S,4S)-2-(3,5-Bis-trifluoromethyl-phenyl)-N-[3-chloro-6′-(4-hydroxy-2-hydroxymethyl-pyrrolidin-1-yl)-[2,4′]bipyridinyl-3′-yl]-N-methyl-isobutyramide]	–	–	2.4	20
Cc1cc(F)ccc1-c1cc(N2CC[C@@H](O)[C@H]2CO)ncc1N(C)C(=O)C(C)(C)c1cc(C(F)(F)F)cc(C(F)(F)F)c1 [Example 156, (2R,3R)-2-(3,5-Bis-trifluoromethyl-phenyl)-N-[4-(4-fluoro-2-methyl-phenyl)-6-(3-hydroxy-2-hydroxymethyl-pyrrolidin-1-yl)-pyridin-3-yl]-N-methyl-isobutyramide]	1.74	1.58	–	–
Cc1cc(F)ccc1-c1cc(N2CC=C[C@H]2CO)ncc1N(C)C(=O)C(C)(C)c1cc(C(F)(F)F)cc(C(F)(F)F)c1 [Example 157, (S)-2-(3,5-Bis-trifluoromethyl-phenyl)-N-[4-(4-fluoro-2-methyl-phenyl)-6-(2-hydroxymethyl-2,5-dihydro-pyrrol-1-yl)-pyridin-3-yl]-N-methyl-isobutyramide]	2.51	1.58	–	–
C[C@H](O)[C@@H](CO)Nc1cc(-c2ccccc2Cl)c(N(C)C(=O)C(C)(C)c2cc(C(F)(F)F)cc(C(F)(F)F)c2)cn1 [Example 145, (1R,2S)-2-(3,5-Bis-trifluoromethyl-phenyl)-N-[4-(2-chloro-phenyl)-6-(2-hydroxy-1-hydroxymethyl-propylamino)-pyridin-3-yl]-N-methyl-isobutyramide]	0.832	7.94	–	–
CN(C(=O)C(C)(C)c1cc(C(F)(F)F)cc(C(F)(F)F)c1)c1cnc(N2C[C@H](O)C[C@H]2CO)cc1-c1ccc(F)c(Cl)c1 [Example 212, (2S,4R)-2-(3,5-Bis-trifluoromethyl-phenyl)-N-[4-(3-chloro-4-fluoro-phenyl)-6-(4-hydroxy-2-hydroxymethyl-pyrrolidin-1-yl)-pyridin-3-yl]-N-methyl-isobutyramide]	–	–	0.813	2.51
CC(=O)N1CCN(c2cc(-c3ccccc3Cl)c(N(C)C(=O)C(C)(C)c3cc(C(F)(F)F)cc(C(F)(F)F)c3)cn2)CC1 [Example 61, N-[6-(4-Acetyl-piperazin-1-yl)-4-(2-chloro-phenyl)-pyridin-3-yl]-2-(3,5-bis-trifluoromethyl-phenyl)-N-methyl-isobutyramide]	0.417	14.1	–	–

From US8404708B2, “Dual NK1/NK3 receptor antagonists” (Hoffmann-La Roche Inc., priority 2004, dated 2013)
